The values that follow come from PMC6358863, “Involvement of the Hydroperoxy Group in the Irreversible Inhibition of Leukocyte-Type 12-Lipoxygenase by Monoterpene Glycosides Contained in the Qing Shan Lu Shui Tea” (Molecules, 2019).

The target in assay [1] is T1, leukocyte-type 12-lipoxygenase (Mus musculus, UniProt P39654).
T1 sequence (P39654 1-663): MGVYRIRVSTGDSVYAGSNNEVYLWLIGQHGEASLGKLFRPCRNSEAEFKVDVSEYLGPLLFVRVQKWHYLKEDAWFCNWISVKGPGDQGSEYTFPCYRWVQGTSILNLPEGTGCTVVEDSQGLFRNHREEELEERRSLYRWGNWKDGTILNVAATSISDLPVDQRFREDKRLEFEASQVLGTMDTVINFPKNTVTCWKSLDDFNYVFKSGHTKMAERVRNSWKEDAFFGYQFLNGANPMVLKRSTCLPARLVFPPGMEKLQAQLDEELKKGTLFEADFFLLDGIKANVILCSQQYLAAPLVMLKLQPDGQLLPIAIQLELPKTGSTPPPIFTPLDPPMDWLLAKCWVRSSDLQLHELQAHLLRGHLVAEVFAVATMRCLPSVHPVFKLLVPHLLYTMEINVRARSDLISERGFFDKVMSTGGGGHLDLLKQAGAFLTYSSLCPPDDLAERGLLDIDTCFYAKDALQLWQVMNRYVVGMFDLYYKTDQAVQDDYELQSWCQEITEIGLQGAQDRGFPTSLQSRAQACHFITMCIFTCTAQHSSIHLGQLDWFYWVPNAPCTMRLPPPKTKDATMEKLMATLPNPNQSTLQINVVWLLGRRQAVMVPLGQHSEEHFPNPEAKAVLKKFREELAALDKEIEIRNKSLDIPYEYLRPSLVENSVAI
As to the kind of experiment: leukocyte-type 12-lipoxygenase inhibition assay (arachidonic acid, HPLC quantification). Conditions: 25 μM arachidonic acid, 30 °C, 5 min; for inhibitory effect on leukocyte-type 12-lipoxygenase activity (in words): various concentrations (Figure 5). The format is biochemical. As for the experimental part:
Figure 3 Inhibition of the leukocyte-type 12-lipoxygenase activity by liguroside C (closed circles) and liguroside D (open circles). Leukocyte-type 12-lipoxygenase was incubated with 25 μM arachidonic acid at 30 °C for 5 min in the standard reaction mixture, in the presence of inhibitors at various concentrations and the products were quantified using a reverse-phase HPLC. Relative enzyme activities, as compared with the activity without inhibitors, are shown.
Figure 5 Inhibition of the leukocyte-type 12-lipoxygenase activity by liguroside A (closed circles), kudingoside B (grey circles), kudingoside A (open circles), and lipedoside B-III (open lozenges). Leukocyte-type 12-lipoxygenase was incubated with 25 μM arachidonic acid, at 30 °C, for 5 min, in the standard reaction mixture in the presence of inhibitors, at various concentrations, and the products were quantified using a reverse-phase HPLC. Relative enzyme activities, as compared with the activity without inhibitors, are shown.
The lipoxygenase and cyclooxygenase reactions were carried out, as described previously. Briefly, leukocyte-type 12-lipoxygenase or 15-lipoxygenase-1 was preincubated with inhibitors, in a volume of 0.2 mL in 100 mM Tris-HCl buffer, at pH 7.4, for 5 min at 30 °C, and was then incubated with 25 μM arachidonic acid for 5 min at 30 °C. Platelet-type 12-lipoxygenase reaction was carried out the as same as leukocyte-type 12-lipoxygenase reaction, except for incubation condition of 30 min at 37 °C. 5-Lipoxygenase was preincubated in 100 mM Tris-HCl buffer at pH 7.4, 2 mM CaCl2, and 2 mM ATP, with inhibitors, for 5 min on ice and then incubated with 25 μM arachidonic acid, for 5 min at 30 °C. To reduce the metabolites of each lipoxygenase isozyme, we added glutathione peroxidase (0.1 unit) and 5 mM glutathione to the mixture, followed by incubation for another 20 min. The enzyme reactions of cyclooxygenase-1 and cyclooxygenase-2 were carried out, as described previously. Briefly, cyclooxygenase-1 and cyclooxygenase-2 were preincubated with inhibitors in a volume of 0.2 mL in 100 mM Tris-HCl buffer at pH 7.4, 2 μM hematin, and 5 mM tryptophan, for 5 min at 24 °C, and then incubated with 25 μM […], for 5 min at 24 °C. After the reaction was quenched by an addition of 50 mM HCl, 0.5 nmol of 15-HEDE were added as an internal standard for enzyme reactions. The products extracted with ice-cold diethyl ether were analyzed by a reverse-phase HPLC, using a Waters Alliance system equipped with a COSMOSIL 5C18-MS-II column (5-μm particle, 250 × 4.6 mm i.d., Nacalai), with a solvent system of methanol-water-acetic acid (80:20:0.01, v/v), at a flow rate of 1 mL/min, as previously described. Absorption at 235 nm was continuously monitored, using a Waters 2489 UV/Visible detector (Waters, Milford, MA, USA). Protein concentration was determined using a bicinchoninic acid protein assay kit (Thermo Fisher Scientific, Waltham, MA, USA), with bovine serum albumin as a standard.

For assay [2], the target named is T1, leukocyte-type 12-lipoxygenase. Further details: method as in PMID 23579993. The following applies: cited from earlier work.
The target is the same in assay [3]. Description: reversibility analysis of leukocyte-type 12-lipoxygenase inhibition (preincubation, 200-fold dilution). Type of assay: biochemical. The protocol:
The preincubation mixture was 200-fold diluted 0, 5, 15, and 30 min, before starting the enzyme reaction under the standard condition for the lipoxygenase assay. […] On the other hands, tested ligurosides inhibited the leukocyte-type 12-lipoxygenase activity, even after 30 min, indicating an irreversible inhibition of the enzyme activity (Figure 4). Figure 4 Reversibility analysis of the leukocyte-type 12-lipoxygenase inhibition. The leukocyte-type 12-lipoxygenase was preincubated with 6 μM quercetin, liguroside A, liguroside C, and liguroside D, at 30 °C, for 5 min, and then the mixture was 200-fold diluted in the standard lipoxygenase reaction mixture. After 0, 5, 15, and 30 min, the mixtures were incubated with 25 μM arachidonic acid at 30 °C, for 5 min. […] The products extracted with ice-cold diethyl ether were analyzed by a reverse-phase HPLC, using a Waters Alliance system equipped with a COSMOSIL 5C18-MS-II column (5-μm particle, 250 × 4.6 mm i.d., Nacalai), with a solvent system of methanol-water-acetic acid (80:20:0.01, v/v), at a flow rate of 1 mL/min, as previously described. Absorption at 235 nm was continuously monitored, using a Waters 2489 UV/Visible detector (Waters, Milford, MA, USA). Protein concentration was determined using a bicinchoninic acid protein assay kit (Thermo Fisher Scientific, Waltham, MA, USA), with bovine serum albumin as a standard.

Like-named read-outs stand apart in the source and are kept apart here.

`CC(C)=CCC/C(C)=C/CO[C@@H]1O[C@H](CO)[C@@H](OC(=O)/C=C/c2ccc(O)cc2)[C@H](O[C@@H]2O[C@@H](C)[C@H](O)[C@@H](O)[C@H]2O)[C@H]1O` [kudingoside A]: the “inhibitory effect on leukocyte-type 12-lipoxygenase activity (in words)” value in assay [1] is “did not inhibit”. The same measure, in the same setting: with `C/C(=C\CO[C@@H]1O[C@H](CO)[C@@H](OC(=O)/C=C/c2ccc(O)cc2)[C@H](O[C@@H]2O[C@@H](C)[C@H](O)[C@@H](O)[C@H]2O)[C@H]1O)C/C=C/C(C)(C)O` [kudingoside B] the entry was “lower inhibitory effect”. Consider `C/C(=C\CO[C@@H]1O[C@H](CO)[C@@H](OC(=O)/C=C\c2ccc(O)cc2)[C@H](O[C@@H]2O[C@@H](C)[C@H](O)[C@@H](O)[C@H]2O)[C@H]1O)C/C=C/C(C)(C)OO` [liguroside B], for which, in assay [2] (previous report, read-out: IC50, inhibition of leukocyte-type 12-lipoxygenase activity), the concentration for half-maximal inhibition (IC50) is 0.7 µM. For the compound `C=CC(C)(C/C=C/C(C)(C)OO)O[C@@H]1O[C@H](CO)[C@@H](OC(=O)/C=C/c2ccc(O)cc2)[C@H](O[C@@H]2O[C@@H](C)[C@H](O)[C@@H](O)[C@H]2O)[C@H]1O` (stereo partly drawn) [liguroside C, (5E)-7-hydroperoxy-3,7-dimethyl-1,5-octadienyl-3-O-(α-L-rhamnopyranosyl)-(1′′→3′)-(4′′′-O-trans-p-coumaroyl)-β-D-glucopyranoside], the IC50 in assay [1] came out at 2.9 µM.

In turn, `C=C(C)C(CC/C(C)=C/CO[C@@H]1O[C@H](CO)[C@@H](OC(=O)/C=C/c2ccc(O)cc2)[C@H](O[C@@H]2O[C@@H](C)[C@H](O)[C@@H](O)[C@H]2O)[C@H]1O)OO` (stereo partly drawn) [liguroside D] had a 50% inhibitory concentration (IC50) in assay [1] of 4.2 µM.

`C=CC(C)(CCC=C(C)C)O[C@@H]1O[C@H](CO)[C@@H](OC(=O)/C=C/c2ccc(O)cc2)[C@H](O[C@@H]2O[C@@H](C)[C@H](O)[C@@H](O)[C@H]2O)[C@H]1O` (stereo partly drawn) [lipedoside B-III]: the “inhibitory effect on leukocyte-type 12-lipoxygenase activity (in words)” value in assay [1] was “did not inhibit”. Take `O=C(O)C=Cc1ccc(O)cc1` [p-Coumaric acid, reference compound]: in assay [2], the “inhibition of leukocyte-type 12-lipoxygenase activity (in words)” value is given as “no inhibition”. For the compound `O=c1c(O)c(-c2ccc(O)c(O)c2)oc2cc(O)cc(O)c12` [quercetin], in assay [3] (preincubated 5 min with 6 μM, no dilution), the “inhibition of leukocyte-type 12-lipoxygenase activity at 6 μM (in words)” value is “almost completely inhibited”. In assay [3] (preincubation 6 μM 5 min at 30 °C, 200-fold dilution, 0, 5, 15 and 30 min before reaction), the “reversibility of leukocyte-type 12-lipoxygenase inhibition after dilution” value is recorded as “quickly recovered”.
